Measured values taken from patent US20250171438A1 (Agios Pharmaceuticals, Inc., priority 2022, published 2025).

molecular target: T1, human PAH with the R408W mutation (Homo sapiens, UniProt P00439, R408W); experiment: Cell Based Phenylalanine Flux Assay; conditions: A375 cells expressing human R408W PAH; 24 hrs with compound; 13C-Tyrosine by LC-MS; average where tested multiple times; read-out: AC50
T1 construct: expressed in transfected cells
T1 sequence (P00439 1-452 R408W): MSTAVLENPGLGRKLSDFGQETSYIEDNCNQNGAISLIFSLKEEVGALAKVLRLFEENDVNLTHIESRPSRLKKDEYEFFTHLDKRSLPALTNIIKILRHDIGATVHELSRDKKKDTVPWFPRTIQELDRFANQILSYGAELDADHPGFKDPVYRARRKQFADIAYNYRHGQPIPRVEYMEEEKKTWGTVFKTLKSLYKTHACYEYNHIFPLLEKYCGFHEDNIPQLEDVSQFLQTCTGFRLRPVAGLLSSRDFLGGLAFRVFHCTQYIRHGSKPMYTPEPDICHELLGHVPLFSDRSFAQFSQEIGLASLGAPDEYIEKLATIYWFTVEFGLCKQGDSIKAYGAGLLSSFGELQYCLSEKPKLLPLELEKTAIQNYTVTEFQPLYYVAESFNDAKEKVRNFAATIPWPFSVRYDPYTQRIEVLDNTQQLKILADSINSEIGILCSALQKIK

AC50 [µM]	SMILES
1 to 5	O=C(CCc1nnc(Br)s1)N1CCc2[nH]cnc2[C@H]1c1nc2ccccc2[nH]1 [(S)-1-(4-(1H-benzo[d]imidazol-2-yl)-1,4,6,7-tetrahydro-5H-imidazo[4,5-c]pyridin-5-yl)-3-(5-bromo-1,3,4-thiadiazol-2-yl)propan-1-one]
1 to 5	CCc1nnc(CCC(=O)N2CCc3[nH]cnc3[C@H]2c2nc3ccccc3[nH]2)s1 [(S)-1-(4-(1H-benzo[d]imidazol-2-yl)-1,4,6,7-tetrahydro-5H-imidazo[4,5-c]pyridin-5-yl)-3-(5-ethyl-1,3,4-thiadiazol-2-yl)propan-1-one]
1 to 5	Cc1cnc(CCC(=O)N2CCc3[nH]cnc3[C@H]2c2nc3ccccc3[nH]2)s1 [(S)-1-(4-(1H-benzo[d]imidazol-2-yl)-1,4,6,7-tetrahydro-5H-imidazo[4,5-c]pyridin-5-yl)-3-(5-methylthiazol-2-yl)propan-1-one]
1 to 5	O=C(CCc1nc2ccccc2s1)N1CCc2[nH]cnc2[C@H]1c1nc2ccccc2[nH]1 [(S)-1-(4-(1H-benzo[d]imidazol-2-yl)-1,4,6,7-tetrahydro-5H-imidazo[4,5-c]pyridin-5-yl)-3-(benzo[d]thiazol-2-yl)propan-1-one]
1 to 5	O=C(CCc1cscn1)N1CCc2[nH]cnc2[C@H]1c1nc2ccccc2[nH]1 [(S)-1-(4-(1H-benzo[d]imidazol-2-yl)-1,4,6,7-tetrahydro-5H-imidazo[4,5-c]pyridin-5-yl)-3-(thiazol-4-yl)propan-1-one]
> 5	O=C(CCc1cncs1)N1CCc2[nH]cnc2[C@H]1c1nc2ccccc2[nH]1 [(S)-1-(4-(1H-benzo[d]imidazol-2-yl)-1,4,6,7-tetrahydro-5H-imidazo[4,5-c]pyridin-5-yl)-3-(thiazol-5-yl)propan-1-one]
1 to 5	O=C(CCCc1ccc(F)cc1)N1CCc2[nH]cnc2[C@H]1c1nc2ccccc2[nH]1 [(S)-1-(4-(1H-benzo[d]imidazol-2-yl)-1,4,6,7-tetrahydro-5H-imidazo[4,5-c]pyridin-5-yl)-4-(4-fluorophenyl)butan-1-one]
1 to 5	O=C(CCCc1nc2ccccc2s1)N1CCc2[nH]cnc2[C@H]1c1nc2ccccc2[nH]1 [(S)-1-(4-(1H-benzo[d]imidazol-2-yl)-1,4,6,7-tetrahydro-5H-imidazo[4,5-c]pyridin-5-yl)-4-(benzo[d]thiazol-2-yl)butan-1-one]
1 to 5	O=C(CCCc1nccs1)N1CCc2[nH]cnc2[C@H]1c1nc2ccccc2[nH]1 [(S)-1-(4-(1H-benzo[d]imidazol-2-yl)-1,4,6,7-tetrahydro-5H-imidazo[4,5-c]pyridin-5-yl)-4-(thiazol-2-yl)butan-1-one]
> 5	O=C(Cn1cncn1)N1CCc2[nH]cnc2[C@H]1c1nc2ccccc2[nH]1 [(S)-1-(4-(1H-benzo[d]imidazol-2-yl)-6,7-dihydro-1H-imidazo[4,5-c]pyridin-5(4H)-yl)-2-(1H-1,2,4-triazol-1-yl)ethanone]
1 to 5	O=C(Cc1coc(C(F)F)n1)N1CCc2[nH]cnc2[C@H]1c1nc2ccccc2[nH]1 [(S)-1-(4-(1H-benzo[d]imidazol-2-yl)-6,7-dihydro-1H-imidazo[4,5-c]pyridin-5(4H)-yl)-2-(2-(difluoromethyl)oxazol-4-yl)ethanone]
> 5	Cc1ncc(CC(=O)N2CCc3[nH]cnc3[C@H]2c2nc3ccccc3[nH]2)o1 [(S)-1-(4-(1H-benzo[d]imidazol-2-yl)-6,7-dihydro-1H-imidazo[4,5-c]pyridin-5(4H)-yl)-2-(2-methyloxazol-5-yl)ethanone]
1 to 5	Cc1ncoc1CC(=O)N1CCc2[nH]cnc2[C@H]1c1nc2ccccc2[nH]1 [(S)-1-(4-(1H-benzo[d]imidazol-2-yl)-6,7-dihydro-1H-imidazo[4,5-c]pyridin-5(4H)-yl)-2-(4-methyloxazol-5-yl)ethanone]
> 5	O=C(Cc1cnco1)N1CCc2[nH]cnc2[C@H]1c1nc2ccccc2[nH]1 [(S)-1-(4-(1H-benzo[d]imidazol-2-yl)-6,7-dihydro-1H-imidazo[4,5-c]pyridin-5(4H)-yl)-2-(oxazol-5-yl)ethanone]
1 to 5	O=C(Cc1cnn2ccccc12)N1CCc2[nH]cnc2[C@H]1c1nc2ccccc2[nH]1 [(S)-1-(4-(1H-benzo[d]imidazol-2-yl)-6,7-dihydro-1H-imidazo[4,5-c]pyridin-5(4H)-yl)-2-(pyrazolo[1,5-a]pyridin-3-yl)ethanone]
1 to 5	O=C(Cc1ccccn1)N1CCc2[nH]cnc2[C@H]1c1nc2ccccc2[nH]1 [(S)-1-(4-(1H-benzo[d]imidazol-2-yl)-6,7-dihydro-1H-imidazo[4,5-c]pyridin-5(4H)-yl)-2-(pyridin-2-yl)ethanone]
1 to 5	O=C(Cc1cscn1)N1CCc2[nH]cnc2[C@H]1c1nc2ccccc2[nH]1 [(S)-1-(4-(1H-benzo[d]imidazol-2-yl)-6,7-dihydro-1H-imidazo[4,5-c]pyridin-5(4H)-yl)-2-(thiazol-4-yl)ethanone]

AC50 [µM]	SMILES
1 to 5	O=C(Cc1cncs1)N1CCc2[nH]cnc2[C@H]1c1nc2ccccc2[nH]1 [(S)-1-(4-(1H-benzo[d]imidazol-2-yl)-6,7-dihydro-1H-imidazo[4,5-c]pyridin-5(4H)-yl)-2-(thiazol-5-yl)ethanone]
> 5	N#Cc1ccn2ncc(C(=O)N3CCc4[nH]cnc4[C@H]3c3nc4ccccc4[nH]3)c2c1 [(S)-3-(4-(1H-benzo[d]imidazol-2-yl)-4,5,6,7-tetrahydro-1H-imidazo[4,5-c]pyridine-5-carbonyl)pyrazolo[1,5-a]pyridine-5-carbonitrile]
1 to 5	O=C(c1nc2ccccc2[nH]1)N1CCc2[nH]cnc2[C@H]1c1nc2ccccc2[nH]1 [(S)-(4-(1H-benzo[d]imidazol-2-yl)-1,4,6,7-tetrahydro-5H-imidazo[4,5-c]pyridin-5-yl)(1H-benzo[d]imidazol-2-yl)methanone]
> 5	O=C(c1n[nH]c2ccccc12)N1CCc2[nH]cnc2[C@H]1c1nc2ccccc2[nH]1 [(S)-(4-(1H-benzo[d]imidazol-2-yl)-1,4,6,7-tetrahydro-5H-imidazo[4,5-c]pyridin-5-yl)(1H-indazol-3-yl)methanone]
1 to 5	COc1cccc(C(=O)N2CCc3[nH]cnc3[C@H]2c2nc3ccccc3[nH]2)c1 [(S)-(4-(1H-benzo[d]imidazol-2-yl)-1,4,6,7-tetrahydro-5H-imidazo[4,5-c]pyridin-5-yl)(3-methoxyphenyl)methanone]
1 to 5	O=C(c1nc2c(F)cccc2s1)N1CCc2[nH]cnc2[C@H]1c1nc2ccccc2[nH]1 [(S)-(4-(1H-benzo[d]imidazol-2-yl)-1,4,6,7-tetrahydro-5H-imidazo[4,5-c]pyridin-5-yl)(4-fluorobenzo[d]thiazol-2-yl)methanone]
1 to 5	O=C(c1cnn2cccc(F)c12)N1CCc2[nH]cnc2[C@H]1c1nc2ccccc2[nH]1 [(S)-(4-(1H-benzo[d]imidazol-2-yl)-1,4,6,7-tetrahydro-5H-imidazo[4,5-c]pyridin-5-yl)(4-fluoropyrazolo[1,5-a]pyridin-3-yl)methanone]
1 to 5	Cc1csc(C(=O)N2CCc3[nH]cnc3[C@H]2c2nc3ccccc3[nH]2)n1 [(S)-(4-(1H-benzo[d]imidazol-2-yl)-1,4,6,7-tetrahydro-5H-imidazo[4,5-c]pyridin-5-yl)(4-methylthiazol-2-yl)methanone]
1 to 5	Cc1cnc(C(=O)N2CCc3[nH]cnc3[C@H]2c2nc3ccccc3[nH]2)s1 [(S)-(4-(1H-benzo[d]imidazol-2-yl)-1,4,6,7-tetrahydro-5H-imidazo[4,5-c]pyridin-5-yl)(5-methylthiazol-2-yl)methanone]
1 to 5	O=C(c1cnn2cc(Br)ccc12)N1CCc2[nH]cnc2[C@H]1c1nc2ccccc2[nH]1 [(S)-(4-(1H-benzo[d]imidazol-2-yl)-1,4,6,7-tetrahydro-5H-imidazo[4,5-c]pyridin-5-yl)(6-bromopyrazolo[1,5-a]pyridin-3-yl)methanone]
1 to 5	O=C(C1CCCCC1)N1CCc2[nH]cnc2[C@H]1c1nc2ccccc2[nH]1 [(S)-(4-(1H-benzo[d]imidazol-2-yl)-1,4,6,7-tetrahydro-5H-imidazo[4,5-c]pyridin-5-yl)(cyclohexyl)methanone]
1 to 5	O=C(C1CCCC1)N1CCc2[nH]cnc2[C@H]1c1nc2ccccc2[nH]1 [(S)-(4-(1H-benzo[d]imidazol-2-yl)-1,4,6,7-tetrahydro-5H-imidazo[4,5-c]pyridin-5-yl)(cyclopentyl)methanone]
1 to 5	O=C(C1CC1)N1CCc2[nH]cnc2[C@H]1c1nc2ccccc2[nH]1 [(S)-(4-(1H-benzo[d]imidazol-2-yl)-1,4,6,7-tetrahydro-5H-imidazo[4,5-c]pyridin-5-yl)(cyclopropyl)methanone]
1 to 5	O=C(c1ccsn1)N1CCc2[nH]cnc2[C@H]1c1nc2ccccc2[nH]1 [(S)-(4-(1H-benzo[d]imidazol-2-yl)-1,4,6,7-tetrahydro-5H-imidazo[4,5-c]pyridin-5-yl)(isothiazol-3-yl)methanone]
1 to 5	O=C(c1cnsc1)N1CCc2[nH]cnc2[C@H]1c1nc2ccccc2[nH]1 [(S)-(4-(1H-benzo[d]imidazol-2-yl)-1,4,6,7-tetrahydro-5H-imidazo[4,5-c]pyridin-5-yl)(isothiazol-4-yl)methanone]
1 to 5	O=C(c1ccns1)N1CCc2[nH]cnc2[C@H]1c1nc2ccccc2[nH]1 [(S)-(4-(1H-benzo[d]imidazol-2-yl)-1,4,6,7-tetrahydro-5H-imidazo[4,5-c]pyridin-5-yl)(isothiazol-5-yl)methanone]
